Where two headings read alike, the source gives them in different places.
What was measured:
[1] = system: Cullin-3 (CUL3) neddylation; assay: AlphaLISA assay for Cullin-3 (CUL3) neddylation in TF 1 cells; assay type: cell-based; conditions: 3 hours treatment
Method in brief: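 Neddylated CUL3 was quantified by AlphaLISA in lysates of TF 1 cells exposed for 3 h to test compound in IMDM without supplements. Percent inhibition set between vehicle and 1 μM DI-1548 positive control; IC50 derived by Hill-equation fitting of dose-response curves.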

[2] = molecular target: DCN1 (DCUND1) protein PONY domain (Homo sapiens (Human), UniProt Q96GG9); assay: TR-FRET assay, DCN1 binding with FAM-labeled probe
Sequence of DCN1 (DCUND1) protein PONY domain (Q96GG9 60-248): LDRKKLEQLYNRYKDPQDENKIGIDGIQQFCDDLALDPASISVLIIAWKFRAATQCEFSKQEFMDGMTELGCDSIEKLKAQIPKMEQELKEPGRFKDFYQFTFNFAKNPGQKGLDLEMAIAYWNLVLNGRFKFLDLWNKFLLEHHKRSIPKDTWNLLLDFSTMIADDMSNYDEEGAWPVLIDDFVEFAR
Method in brief: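 First, the E. coli-derived PONY domain was biotinylated and paired with streptavidin Tb cryptate. Compounds in 0.1% DMSO were then added to DCN1 and FAM-probe (5 nM/20 nM, or 0.31 nM/900 nM total with 800 nM unlabelled) in TritonX, 200 mM NaCl buffer. Finally, TR-FRET ratios were recorded at 1, 5 and 24 hrs.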

[3] = 24 hr after treatment with compound, read-out: TR FRET IC50 24 hr
[4] = TR FRET IC50 1 hr (nM), 1 hr after treatment with compound
[5] = read-out: TR FRET IC50 1 hr, 1 hr after treatment with compound

Row | SMILES | IC50 [1] | IC50 [2, 3] | IC50 [2, 4] | IC50 ([1]; Homo sapiens, TF-1, 3 h) | IC50 [2, 5] | IC50 ([1]; Homo sapiens)
1 | CCN1C(=O)[C@@H](NC(=O)c2cccn(C3CC3)c2=O)[C@@H](C2CC2)c2c(C(=O)N3[C@H](C#N)C[C@H]4C[C@H]43)nn(C3CCOCC3)c21 [Compound I-625] | > 1000 nM | 1000 to 3000 nM | 1000 to 3000 nM |  |  | 
2 | CCN1C(=O)[C@@H](NC(=O)c2cccc(C(F)(F)F)c2)[C@@H](C2CC2)c2c(C(=O)N3CC(=O)C[C@H]3C#N)nn(C3CCOCC3)c21 [Compound I-626, N-((4S,5S)-3-((S)-2-cyano-4-oxopyrrolidine-1-carbonyl)-4-cyclopropyl-7-ethyl-6-oxo-1-(tetrahydro-2H-pyran-4-yl)-4,5,6,7-tetrahydro-1H-pyrazolo[3,4-b]pyridin-5-yl)-3-(trifluoromethyl)benzamide] |  | ≤ 200 nM |  | ≤ 100 nM | ≤ 200 nM | 
3 | CCN1C(=O)[C@@H](NC(=O)COc2ccccc2)[C@@H](C2CC2)c2c(C(=O)N3[C@H](C#N)C[C@H]4C[C@H]43)nn(C3CCOCC3)c21 [Compound I-628] |  | 1000 to 3000 nM | 1000 to 3000 nM | 100 to 1000 nM |  | 
4 | CCN1C(=O)[C@@H](NC(=O)CN2CC(c3ccccc3)CC2=O)[C@@H](C2CC2)c2c(C(=O)N3[C@H](C#N)C[C@H]4C[C@H]43)nn(C3CCOCC3)c21 (stereo partly drawn) [Compound I-629] |  | 1000 to 3000 nM | 1000 to 3000 nM | > 1000 nM |  | 
5 | CCN1C(=O)[C@@H](NC(=O)c2cccc(C(F)(F)F)c2)[C@@H](c2ccc(F)cc2)c2c(C(=O)N3CCC=C3C#N)nn(C3CCOCC3)c21 [Compound I-631, N-((4S,5S)-3-(5-cyano-2,3-dihydro-1H-pyrrole-1-carbonyl)-7-ethyl-4-(4-fluorophenyl)-6-oxo-1-(tetrahydro-2H-pyran-4-yl)-4,5,6,7-tetrahydro-1H-pyrazolo[3,4-b]pyridin-5-yl)-3-(trifluoromethyl)benzamide] |  | ≤ 200 nM | 200 to 1000 nM | 100 to 1000 nM |  | 
6 | CCN1C(=O)[C@@H](NC(=O)c2ccc3[nH]cnc3c2)[C@@H](C2CC2)c2c(C(=O)N3[C@H](C#N)C[C@H]4C[C@H]43)nn(C3CCOCC3)c21 [Compound I-632] |  | 1000 to 3000 nM | 1000 to 3000 nM | > 1000 nM |  | 
7 | CCN1C(=O)[C@@H](NC(=O)c2cccc3c2CCCO3)[C@@H](C2CC2)c2c(C(=O)N3[C@H](C#N)C[C@H]4C[C@H]43)nn(C3CCOCC3)c21 [Compound I-633] |  | 200 to 1000 nM | 1000 to 3000 nM | 100 to 1000 nM |  | 
8 | CCN1C(=O)[C@@H](NC(=O)[C@@H]2CCN(Cc3ccccc3)C2)[C@@H](C2CC2)c2c(C(=O)N3[C@H](C#N)C[C@H]4C[C@H]43)nn(C3CCOCC3)c21 [Compound I-634] |  | 1000 to 3000 nM | 1000 to 3000 nM | > 1000 nM |  | 
9 | CCN1C(=O)[C@@H](NC(=O)c2cccc(C(F)(F)F)c2)[C@@H](c2ccc(F)cc2)c2c(CNC/C=C/C(=O)OC(C)(C)C)nn(-c3ccccc3)c21 [Compound I-635] |  | ≤ 200 nM | 1000 to 3000 nM | 100 to 1000 nM |  | 
10 | CCN1C(=O)[C@@H](NC(=O)c2cccc(C(F)(F)F)c2)[C@@H](c2ccc(F)cc2)c2c(CN(C)C/C=C/C(=O)N(C)C)nn(-c3ccccc3)c21 [Compound I-638] |  | ≤ 200 nM |  | > 1000 nM | ≤ 200 nM | 
11 | CCN1C(=O)[C@@H](NC(=O)c2nccc(C(F)(F)F)n2)[C@H](c2ccc(F)cc2)c2c(CC(=O)N(C)CC#N)nn(-c3ccccc3)c21 [Compound I-640, N-((4R,5S)-3-(2-((cyanomethyl)(methyl)amino)-2-oxoethyl)-7-ethyl-4-(4-fluorophenyl)-6-oxo-1-phenyl-4,5,6,7-tetrahydro-1H-pyrazolo[3,4-b]pyridin-5-yl)-4-(trifluoromethyl)pyrimidine-2-carboxamide] |  | 1000 to 3000 nM | 1000 to 3000 nM | 100 to 1000 nM |  | 
12 | CCN1C(=O)[C@@H](NC(=O)c2cccc(C(F)(F)F)c2)[C@H](c2ccc(F)cc2)c2c(CNC(=O)C(C)C#N)nn(-c3ccccc3)c21 (stereo partly drawn) [Compound I-641] |  | 200 to 1000 nM | 200 to 1000 nM | > 1000 nM |  | 
13 | CCN1C(=O)[C@H](NC(=O)c2cccc(C(F)(F)F)c2)C(C2CC2)c2c(C(=O)N3CCC[C@H]3C#N)nn(-c3ccccc3)c21 (stereo partly drawn) [Compound I-642] |  | 1000 to 3000 nM | 1000 to 3000 nM | > 1000 nM |  | 
14 | CCN1C(=O)[C@@H](NC(=O)c2cccc(C(F)(F)F)c2)[C@@H](c2ccc(F)cc2)c2c(CN(C#N)CCCN(C)C3COC3)nn(-c3ccccc3)c21 [Compound I-646] |  | ≤ 200 nM |  | ≤ 100 nM | ≤ 200 nM | 
15 | CCN1C(=O)[C@H](NC(=O)c2cccc(C(F)(F)F)c2)[C@H](c2ccc(F)cc2)c2c(C(=O)N3CCC[C@H]3C#N)nn(-c3cccc(OCCN4CC5(COC5)C4)c3)c21 [Compound I-647] |  | 1000 to 3000 nM | 1000 to 3000 nM | > 1000 nM |  | 
16 | CCN1C(=O)[C@H](NC(=O)c2cccc(C(F)(F)F)c2)[C@H](c2ccc(F)cc2)c2c(C(=O)N3CCC[C@H]3C#N)nn(-c3cccc(OCCN4CCN(C5COC5)CC4)c3)c21 [Compound I-648] |  | 1000 to 3000 nM | 1000 to 3000 nM | > 1000 nM |  | 

Row | SMILES | IC50 [1] | IC50 [2, 3] | IC50 [2, 4] | IC50 ([1]; Homo sapiens, TF-1, 3 h) | IC50 [2, 5] | IC50 ([1]; Homo sapiens)
17 | CCN1C(=O)[C@@H](NC(=O)c2cccc(C(F)(F)F)c2)[C@@H](c2ccc(F)cc2)c2c(C(=O)N(C)[C@@H](C#N)CCN(C)C3COC3)nn(C3CCOCC3)c21 [Compound I-654] |  | ≤ 200 nM |  | ≤ 100 nM | ≤ 200 nM | 
18 | CCN1C(=O)[C@@H](NC(=O)c2csc3c2CCC(C)C3)[C@@H](C2CC2)c2c(C(=O)N3[C@H](C#N)C[C@H]4C[C@H]43)nn(C3CCOCC3)c21 (stereo partly drawn) [Compound I-656] |  | ≤ 200 nM |  |  | ≤ 200 nM | ≤ 100 nM
19 | CCN1C(=O)[C@@H](NC(=O)c2cccc(C(F)(F)F)c2)[C@@H](C2CC2)c2c(C(=O)N3CCOC[C@@H]3C#N)nn(-c3ccccc3)c21 [Compound I-658] |  | 200 to 1000 nM | 1000 to 3000 nM | > 1000 nM |  | 
20 | CCN1C(=O)[C@@H](NC(=O)c2cccc(C(F)(F)F)c2)[C@@H](C2CC2)c2c(C(=O)N3CCS(=O)(=O)C[C@H]3C#N)nn(-c3ccccc3)c21 [Compound I-659, N-((4S,5S)-3-((R)-3-cyano-1,1-dioxidothiomorpholine-4-carbonyl)-4-cyclopropyl-7-ethyl-6-oxo-1-phenyl-4,5,6,7-tetrahydro-1H-pyrazolo[3,4-b]pyridin-5-yl)-3-(trifluoromethyl)benzamide] |  | ≤ 200 nM |  | ≤ 100 nM | ≤ 200 nM | 
21 | CCN1C(=O)[C@@H](NC(=O)C23CC(C(F)F)(C2)C3)[C@@H](C2CC2)c2c(C(=O)N3[C@H](C#N)C[C@H]4C[C@H]43)nn(C3CCOCC3)c21 [Compound I-662] |  | 1000 to 3000 nM | 1000 to 3000 nM | > 1000 nM |  | 
22 | CCN1C(=O)[C@@H](NC(=O)c2cccc(C(F)(F)F)c2)[C@@H](C2CC2)c2c(C(=O)N(C)[C@@H](C#N)CCN(C)C3COC3)nn(C3CCOCC3)c21 [Compound I-664] |  | 200 to 1000 nM | 200 to 1000 nM | 100 to 1000 nM |  | 
23 | CCN1C(=O)[C@H](NC(=O)c2cccc(C(F)(F)F)c2)[C@H](C2CC2)c2c(C(=O)N3CCC[C@H]3C#N)nn(C3CCOCC3)c21 [Compound I-666] |  | 1000 to 3000 nM | 1000 to 3000 nM | > 1000 nM |  | 
24 | CCN1C(=O)[C@@H](NC(=O)c2ccc3cc[nH]c3c2)[C@@H](C2CC2)c2c(C(=O)N3[C@H](C#N)C[C@H]4C[C@H]43)nn(C3CCOCC3)c21 [Compound I-667] |  | ≤ 200 nM | 200 to 1000 nM | ≤ 100 nM |  | 
25 | CCN1C(=O)[C@@H](NC(=O)c2ccc3nonc3c2)[C@@H](C2CC2)c2c(C(=O)N3[C@H](C#N)C[C@H]4C[C@H]43)nn(C3CCOCC3)c21 [Compound I-668] |  | 1000 to 3000 nM | 1000 to 3000 nM | 100 to 1000 nM |  | 
26 | CCN1C(=O)[C@@H](NC(=O)c2ccc3ncsc3c2)[C@@H](C2CC2)c2c(C(=O)N3[C@H](C#N)C[C@H]4C[C@H]43)nn(C3CCOCC3)c21 [Compound I-669] |  | 200 to 1000 nM | 1000 to 3000 nM | 100 to 1000 nM |  | 
27 | CCN1C(=O)[C@H](NC(=O)c2cccc(C(F)(F)F)c2)[C@H](C2CC2)c2c(C(=O)N(C)C(C)C#N)nn(-c3ccccc3)c21 (stereo partly drawn) [Compound I-676] |  | 1000 to 3000 nM | 1000 to 3000 nM | > 1000 nM |  | 
28 | CCN1C(=O)[C@H](NC(=O)c2cccc(C(F)(F)F)c2)[C@H](c2ccc(F)cc2)c2c(C(=O)N3CCC[C@H]3C#N)nn(-c3cccc(OCCCN4CCN(C5COC5)CC4)c3)c21 [Compound I-681] |  | 1000 to 3000 nM | 1000 to 3000 nM | > 1000 nM |  | 
29 | CCN1C(=O)[C@@H](NC(=O)c2cccc(C(F)(F)F)c2)[C@@H](C2CC2)c2c(C(=O)N(CC#N)C3CC3)nn(C3CCOCC3)c21 [Compound I-682] |  | ≤ 200 nM | 200 to 1000 nM | ≤ 100 nM |  | 
30 | CCN1C(=O)[C@@H](NC(=O)c2cccc(C(F)(F)F)c2)[C@@H](C2CC2)c2c(C(=O)N(CC#N)CCCN(C)C)nn(C3CCOCC3)c21 [Compound I-683] |  | ≤ 200 nM | 200 to 1000 nM | ≤ 100 nM |  | 
31 | CCN1C(=O)[C@@H](NC(=O)c2ccn(C(F)(F)F)n2)[C@@H](c2ccc(F)cc2)c2c(C(=O)N3CCN(C)CC3C#N)nn(-c3ccccc3)c21 (stereo partly drawn) [Compound I-684, N-((4S,5S)-3-(2-cyano-4-methylpiperazine-1-carbonyl)-7-ethyl-4-(4-fluorophenyl)-6-oxo-1-phenyl-4,5,6,7-tetrahydro-1H-pyrazolo[3,4-b]pyridin-5-yl)-1-(trifluoromethyl)-1H-pyrazole-3-carboxamide] |  | ≤ 200 nM |  | ≤ 100 nM | ≤ 200 nM | 
